The results in this text go back to PubChem BioAssay (NCI).

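Assay format: 96-well plates, 48-hour exposure. Here, GI50 denotes the concentration required for 50% inhibition of growth. TGI: concentration producing complete growth inhibition.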 Bounds are passed on as bounds.

Among the test systems are ACHN renal; NCI-H522 lung; OVCAR-3 ovarian; LOX IMVI melanoma; UACC-62 melanoma; EKVX NSCLC; SK-MEL-28 melanoma; OVCAR-5 ovarian; HL-60(TB) leukemia; M14 melanoma.
What all share (test): growth of human tumour cells (NCI), 48 h

With `COc1cc(C(=O)c2c(-c3ccccc3)oc3ccccc23)cc(OC)c1O`, the GI50 is 4.49 µM in the test on ACHN renal; 0.773 µM in the test on NCI-H522 lung; 1.11 µM in the test on OVCAR-3 ovarian; 4.33 µM in the test on LOX IMVI melanoma; 0.975 µM in the test with UACC-62 melanoma; 3.85 µM with EKVX NSCLC. The GI50 with SK-MEL-28 melanoma is 10.4 µM; in the test on OVCAR-5 ovarian, 4.64 µM; with HL-60(TB) leukemia, 0.565 µM; in the test with M14 melanoma, 0.58 µM. The TGI in the test on ACHN renal came out at 41.1 µM; in the test on NCI-H522 lung, 19.6 µM; with OVCAR-3 ovarian it was 5.21 µM; in the test with LOX IMVI melanoma, 21.6 µM; with UACC-62 melanoma it was 16 µM; with EKVX NSCLC, 58.2 µM. Moreover, the TGI was 25.1 µM in the test on SK-MEL-28 melanoma, 32.6 µM with OVCAR-5 ovarian, 3.85 µM in the test on HL-60(TB) leukemia and 10.7 µM with M14 melanoma.

On to `COc1ccccc1OCC(COC(=O)Nc1ccc(C)cc1)OC(=O)Nc1ccc(C)cc1` (centres undefined), for which the TGI stood at 67.7 µM in the test with ACHN renal; 31.5 µM in the test with NCI-H522 lung; 33.9 µM in the test on OVCAR-3 ovarian; 30.2 µM with LOX IMVI melanoma; 30.6 µM in the test with UACC-62 melanoma; 65.8 µM with EKVX NSCLC. The TGI is 60.8 µM in the test with SK-MEL-28 melanoma, 47.4 µM in the test with OVCAR-5 ovarian, 37.4 µM in the test on HL-60(TB) leukemia and 46.2 µM in the test on M14 melanoma.

With `CCN(CC)c1ccc(/C=N\NC(=O)c2cccc(Nc3ccnc(C(F)(F)F)c3)c2)c(O)c1`, the GI50 in the test on ACHN renal is 0.218 µM; in the test with NCI-H522 lung, 0.393 µM; in the test on OVCAR-3 ovarian, 0.271 µM; with LOX IMVI melanoma, 0.133 µM; in the test on UACC-62 melanoma, 0.25 µM; with EKVX NSCLC, 0.219 µM. For the same molecule, the GI50 in the test on SK-MEL-28 melanoma was 0.191 µM; in the test with OVCAR-5 ovarian, 0.408 µM; in the test on HL-60(TB) leukemia, 0.299 µM; with M14 melanoma it was 0.217 µM. In addition, the TGI with ACHN renal was greater than 40.4 µM; with NCI-H522 lung, 15.7 µM; with OVCAR-3 ovarian it was greater than 100 µM; in the test on LOX IMVI melanoma, 2.22 µM; in the test on UACC-62 melanoma it was 1.68 µM; with EKVX NSCLC, 3.8 µM. The TGI with SK-MEL-28 melanoma is greater than 20.8 µM; in the test with OVCAR-5 ovarian, greater than 39.3 µM; with HL-60(TB) leukemia, 1.05 µM; with M14 melanoma, 1.43 µM.

As to `CC(C)=CCC[C@](C)(O)[C@H]1CC[C@]2(C)[C@@H]1CC[C@@H]1[C@@]3(C)CC[C@H](OC(=O)CCC(=O)O)C(C)(C)[C@@H]3CC[C@]12C`, the GI50 was 28.3 µM with ACHN renal; 26.2 µM in the test on NCI-H522 lung; 15.9 µM with OVCAR-3 ovarian; 16.6 µM in the test on LOX IMVI melanoma; 15 µM in the test on UACC-62 melanoma; 37.9 µM with EKVX NSCLC. Besides, the GI50 in the test on SK-MEL-28 melanoma is 16.9 µM; with OVCAR-5 ovarian it was 28.8 µM; in the test on HL-60(TB) leukemia it was 22.2 µM; in the test on M14 melanoma, 73.6 µM. The TGI in the test with ACHN renal was greater than 100 µM; in the test on NCI-H522 lung, greater than 100 µM; with OVCAR-3 ovarian, 30.9 µM; in the test on LOX IMVI melanoma, 30.7 µM; with UACC-62 melanoma, 32.5 µM; in the test on EKVX NSCLC, greater than 100 µM. For the same molecule, the TGI is 34.8 µM in the test on SK-MEL-28 melanoma, 96.3 µM with OVCAR-5 ovarian, 53.1 µM in the test on HL-60(TB) leukemia and greater than 100 µM with M14 melanoma.

On to `N#CC(/C(=N\NC(N)=S)C(=O)NC1C2CC3CC(C2)CC1C3)c1ccc(Cl)cc1` (centres undefined), for which the TGI in the test with ACHN renal, with NCI-H522 lung, with OVCAR-3 ovarian, with LOX IMVI melanoma, with UACC-62 melanoma and in the test with EKVX NSCLC was greater than 100 µM each time. Besides, the TGI with SK-MEL-28 melanoma, with OVCAR-5 ovarian, in the test with HL-60(TB) leukemia and in the test on M14 melanoma was greater than 100 µM in each case.

`O=C(O)CCN1C(=O)/C(=C/C(Cl)=C/c2ccccc2)SC1=S`: the GI50 with ACHN renal is 1.93 µM; in the test on NCI-H522 lung, 2.07 µM; in the test on OVCAR-3 ovarian, 2.41 µM; in the test on LOX IMVI melanoma, 1.5 µM; in the test with UACC-62 melanoma it was 1.52 µM; in the test with EKVX NSCLC it was 3.75 µM. In addition, the GI50 is 2.11 µM in the test on SK-MEL-28 melanoma, 2.77 µM in the test with OVCAR-5 ovarian, 1.85 µM in the test on HL-60(TB) leukemia and 2.24 µM with M14 melanoma. The TGI turned out to be 4.76 µM with ACHN renal; 5.66 µM in the test on NCI-H522 lung; 7.01 µM in the test on OVCAR-3 ovarian; 3.04 µM with LOX IMVI melanoma; 3.42 µM in the test on UACC-62 melanoma; 14.2 µM in the test on EKVX NSCLC. Moreover, the TGI in the test on SK-MEL-28 melanoma is 5.33 µM; in the test with OVCAR-5 ovarian, 6.8 µM; in the test on HL-60(TB) leukemia, 7.64 µM; with M14 melanoma, 8.32 µM.

`S=C1OC2C3C4CC5C3C(O1)C1C5C4C21` (centres undefined): the TGI in the test with ACHN renal, in the test on NCI-H522 lung, in the test with OVCAR-3 ovarian, with LOX IMVI melanoma, with UACC-62 melanoma and with EKVX NSCLC was greater than 100 µM in each case. Moreover, the TGI in the test with SK-MEL-28 melanoma, in the test on OVCAR-5 ovarian, with HL-60(TB) leukemia and in the test with M14 melanoma was greater than 100 µM in each case.

Regarding `O=C1CCC(c2ccccc2)(c2ccccc2)CC1`, the TGI in the test on ACHN renal, in the test with NCI-H522 lung, in the test on OVCAR-3 ovarian, in the test on LOX IMVI melanoma, in the test on UACC-62 melanoma and with EKVX NSCLC was greater than 100 µM each time. Besides, the TGI with SK-MEL-28 melanoma is greater than 100 µM; in the test on OVCAR-5 ovarian it was greater than 100 µM; in the test on HL-60(TB) leukemia it was 81 µM; in the test on M14 melanoma, greater than 100 µM.

Consider `COc1cc(C(N)=O)c(OC)c(OC)c1OC`, for which the TGI in the test on ACHN renal, in the test with NCI-H522 lung, in the test with OVCAR-3 ovarian, in the test with LOX IMVI melanoma, with UACC-62 melanoma and with EKVX NSCLC was greater than 100 µM each time. The TGI with SK-MEL-28 melanoma, with OVCAR-5 ovarian, in the test with HL-60(TB) leukemia and in the test with M14 melanoma was greater than 100 µM each time.

For the molecule `C[C@@H]1CC[C@H]2C(CN3CCN(CC4=C(C(F)(F)F)O[C@@H]5O[C@@]6(C)CC[C@H]7[C@H](C)CC[C@@H]4[C@@]57OO6)CC3)=C(C(F)(F)F)O[C@@H]3O[C@@]4(C)CC[C@@H]1[C@]32OO4`, the GI50 with ACHN renal was 2.61 µM; with NCI-H522 lung it was 2.78 µM; in the test with OVCAR-3 ovarian it was 1.84 µM; in the test with LOX IMVI melanoma, 2.3 µM; in the test with UACC-62 melanoma, 6.35 µM; with EKVX NSCLC, 3.14 µM. The GI50 with SK-MEL-28 melanoma is 9.96 µM; with OVCAR-5 ovarian it was 1.45 µM; with HL-60(TB) leukemia it was 0.382 µM; in the test with M14 melanoma it was 5.74 µM. Further, the TGI with ACHN renal was greater than 27.2 µM; in the test with NCI-H522 lung it was greater than 27 µM; with OVCAR-3 ovarian, greater than 24.9 µM; in the test on LOX IMVI melanoma, greater than 100 µM; in the test on UACC-62 melanoma, greater than 100 µM; in the test with EKVX NSCLC it was greater than 100 µM. For the same molecule, the TGI in the test with SK-MEL-28 melanoma, with OVCAR-5 ovarian and with M14 melanoma was greater than 100 µM each time.
